In patent US6548494B1, “Tricyclic inhibitors of poly(ADP-ribose) polymerases” (Agouron Pharmaceuticals, Inc., priority 1999, dated 2003) one finds melting point and Ki data, which are given here for 34 molecules.

The target in data set [1] is purified PARP protein (Homo sapiens, UniProt P09874). Description: PARP enzyme inhibition assay. It counts as biochemical. The note with it: for pKi: 20 nM purified PARP (5 nM for tight-binding inhibitors), 500 μM NAD+, 25° C., several values in one cell = repeat determinations, read-out: Inhibition Constant Ki; for Ki: Inhibition Constant Ki (nM).
Sequence of purified PARP protein (P09874 whole entry): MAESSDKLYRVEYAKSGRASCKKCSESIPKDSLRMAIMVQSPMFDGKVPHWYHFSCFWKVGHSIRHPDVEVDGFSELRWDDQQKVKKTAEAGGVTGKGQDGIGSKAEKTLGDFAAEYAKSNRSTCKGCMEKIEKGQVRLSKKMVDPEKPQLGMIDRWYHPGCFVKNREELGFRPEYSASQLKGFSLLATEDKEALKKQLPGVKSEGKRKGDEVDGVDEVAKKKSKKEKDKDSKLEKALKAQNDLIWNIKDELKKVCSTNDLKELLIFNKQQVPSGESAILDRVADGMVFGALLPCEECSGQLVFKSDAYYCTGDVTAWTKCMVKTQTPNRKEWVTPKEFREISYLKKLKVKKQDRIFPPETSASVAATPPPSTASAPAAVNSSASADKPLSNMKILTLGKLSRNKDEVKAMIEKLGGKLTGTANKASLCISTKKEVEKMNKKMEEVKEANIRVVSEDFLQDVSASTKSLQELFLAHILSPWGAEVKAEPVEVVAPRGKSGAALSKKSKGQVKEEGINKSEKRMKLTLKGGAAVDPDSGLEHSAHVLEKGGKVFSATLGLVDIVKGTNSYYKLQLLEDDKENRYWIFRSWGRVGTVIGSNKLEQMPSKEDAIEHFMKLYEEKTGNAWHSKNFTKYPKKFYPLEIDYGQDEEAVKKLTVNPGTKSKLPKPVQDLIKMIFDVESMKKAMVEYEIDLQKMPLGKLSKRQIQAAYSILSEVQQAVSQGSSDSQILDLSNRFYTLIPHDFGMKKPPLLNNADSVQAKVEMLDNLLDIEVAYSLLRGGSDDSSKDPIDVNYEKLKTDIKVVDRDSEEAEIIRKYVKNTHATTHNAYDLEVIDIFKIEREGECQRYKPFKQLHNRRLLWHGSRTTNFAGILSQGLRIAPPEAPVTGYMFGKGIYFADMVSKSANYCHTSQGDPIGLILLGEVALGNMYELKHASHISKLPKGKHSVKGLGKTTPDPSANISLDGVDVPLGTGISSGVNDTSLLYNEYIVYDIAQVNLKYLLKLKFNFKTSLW

pKi: −log10 of the molar value. Where “and” joins values, the source holds several entries; their conditions need not be identical. Identical values can stand only once. Like-named read-outs stand apart in the source and are kept apart here.

Turning to `O=C1NCCn2c(C(=O)NCc3ccccc3)nc3cccc1c32` [Example 110, 6-Oxo-6,7,8,9-tetrahydro-2,7,9a-triaza-benzo[cd]azulen-1-carboxylic Acid Benzylamide], the melting point (as a rule, the temperature of the solid-liquid transition) lay in the range of 247 to 250 °C. Besides, the pKi – broadly, the Ki on a negative log10 scale, so that one unit is a factor of ten – in data set [1] is 7.74.
For `N#CCCNCc1ccc(-c2nc3cccc4c3n2CCNC4=O)cc1` [Example 111, 3-[4-(6-Oxo-6,7,8,9-tetrahydro-2,7,9a-triaza-benzo[cd]azulen-1-yl)-benzylamino]-propionitrile] the same measures were 208 to 214 °C and 8.29.
Regarding `O=C1NCCn2c(C(F)(F)F)nc3cccc1c32` [Example 112, 1-Trifluoromethyl-8,9-dihydro-7H-2,7,9a-triaza-benzo[cd]azulen-6-one], the melting point was 277 to 281 °C (dec.). Besides, the pKi in data set [1] is 7.74.
For `O=C1NCCn2c(C(=O)N3CCOCC3)nc3cccc1c32` [Example 113, 1-(Mompholine-4-carbonyl)-8,9-dihydro-7H-2,7,9a-triaza-benzo[cd]azulen-6-one] the same measures were 271 to 274 °C (dec.) and 7.62.
For `O=C1NCCn2c(-c3ccc(=O)n(Cc4ccccc4)c3)nc3cccc1c32` [Example 114, 1-(1-Benzyl-6-oxo-1,6-dihydro-pyridin-3-yl)-8,9-dihydro-7H-2,7,9a-triaza-benzo[cd]azulen-6-one] the same measures were 265 to 269 °C (dec.) and 8.00.
For the molecule `CN1CCN(C(=O)c2nc3cccc4c3n2CCNC4=O)CC1` [Example 115, 1-(4-Methyl-piperazine-1-carbonyl)-8,9-dihydro-7H-2,7,9a-triaza-benzo[cd]azulen-6-one], the melting point was 311 to 316 °C (dec.). Further, the pKi in data set [1] was 6.94.
For `NC(=O)c1ccc(Oc2ccc(-c3nc4cccc5c4n3CCNC5=O)cn2)cc1` [Example 116, 4-[5-(6-Oxo-6,7,8,9-tetrahydro-2,7,9a-triaza-benzo[cd]azulen-1-yl)-pyridin-2-yloxy]-benzamide] the same measures were 244 to 248 °C (dec.) and 8.28.
For `O=C1NCCn2c(C34CC5CC(CC(C5)C3)C4)nc3cccc1c32` [Example 117, 1-Tricyclo[3.3.1.1]dec-1-yl-8,9-dihydro-7H-2,7,9a-triaza-benzo[cd]azulene-6-one] the same measures were 304 to 306 °C and 8.02.
Taken in the same sequence, the figures for `O=C1NCCn2c(-c3ccc(Cl)nc3)nc3cccc1c32` [Example 118, 1-(6-Chloro-pyridin-3-yl)-8,9-dihydro-7H-2,7,9a-triaza-benzo[cd]azulen-6-one] were > 280 °C (dec.) and 8.36.
On to `O=C1NCCn2c(-c3ccc(OCCO)cc3)nc3cccc1c32` [Example 120, 1-[4-(2-Hydroxy-ethoxy)-phenyl]-8,9-dihydro-7H-2,7,9a-triaza-benzo[cd]azulen-6-one], for which the melting point was 253 to 254 °C (dec.). Moreover, the pKi in data set [1] was 8.14.
Taken in the same sequence, the figures for `O=C1NCCn2c(-c3ccc(CN4CC[S+]([O-])CC4)cc3)nc3cccc1c32` [Example 122, 1-[4-(Oxo-1λ^4-thiomorpholin-4-ylmethyl)-phenyl]-8,9-dihydro-7H-2,7,9a-triaza-benzo[cd]azulen-6-one] were 247 °C (dec.) and 8.15.
For `O=C1NCCn2c(-c3ccc(OCCN4CCCC4)cc3)nc3cccc1c32` [Example 123, 1-[4-(2-Pyrrolidin-1-yl-ethoxy)-phenyl]-8,9-dihydro-7H-2,7,9a-triaza-benzo[cd]azulen-6-one] the same measures were 172 to 175 °C and 8.05.
Taken in the same sequence, the figures for `CN(C)CCOc1ccc(-c2nc3cccc4c3n2CCNC4=O)cc1` [Example 124, 1-[4-(2-Dimethylamino-ethoxy)-phenyl]-8,9-dihydro-7H-2,7,9a-triaza-benzo[cd]azulen-6-one] were 184 to 186 °C and 8.10.
Consider `O=C1NCCn2c(-c3ccc(CCOC4CCCCO4)cc3)nc3cccc1c32` (centres unmarked) [Example 125, 1-{4-[2-(Tetrahydro-pyran-2-yloxy)-ethyl]-phenyl}-8,9-dihydro-7H-2,7,9a-triaza-benzo[cd]azulen-6-one], for which the melting point was 189 to 190 °C. Moreover, the negative-log Ki (pKi) in data set [1] is 7.96.
In the case of `O=C1NCCn2c(-c3ccc(CCO)cc3)nc3cccc1c32` [Example 127, 1-[4-(2-Hydroxy-ethyl)-phenyl]-8,9-dihydro-7H-2,7,9a-triaza-benzo[cd]azulen-6-one], the melting point was in the range of 263 to 265 °C. For the same molecule, in data set [1], the pKi is 8.46 and 8.44.
With `Cn1nnc(-c2ccc(-c3nc4cccc5c4n3CCNC5=O)cc2)n1` [Example 133, 1-[4-(2-Methyl-2H-tetrazol-5-yl)-phenyl]-8,9-dihydro-7H-2,7,9a-triaza-benzo[cd]azulen-6-one], the melting point was 280 °C (dec.). In addition, the pKi in data set [1] is 8.16.
Taken in the same sequence, the figures for `O=C1NCCn2c(-c3ccc(-c4ccncc4)cc3)nc3cccc1c32` [Example 135, 1-(4-Pyridin-4-yl-phenyl)-8,9-dihydro-7H-2,7,9a-triaza-benzo[cd]azulen-6-one] were 370 to 372 °C (dec.) and 8.42.
With `O=C1NCCn2c(-c3ccc(-c4nn[nH]n4)cc3)nc3cccc1c32` [Example 136, 1-[4-(2H-Tetrazol-5-yl)-phenyl]-8,9-dihydro-7H-2,7,9a-triaza-benzo[cd]azulen-6-one], the melting point was > 290 °C (dec.). Also, the pKi in data set [1] is 7.02.
For `CSc1nc2cccc3c2n1CCNC3=O` [Example 138, 1-Methylsulfanyl-8,9-dihydro-7H-2,7,9a-triaza-benzo[cd]azulen-6-one] the same measures were 223 to 225 °C and 7.96.
For `C[S+]([O-])c1nc2cccc3c2n1CCNC3=O` (centres unmarked) [Example 139, 1-Methanesulfinyl-8,9-dihydro-7H-2,7,9a-triaza-benzo[cd]azulen-6-one] the same measures were 241 to 242 °C (dec.) and 7.92.
`CS(=O)(=O)c1nc2cccc3c2n1CCNC3=O` [Example 140, 1-Methanesulfonyl-8,9-dihydro-7H-2,7,9a-triaza-benzo[cd]azulen-6-one]: the melting point is > 190 °C (dec.). The negative logarithm of the Ki (pKi) in data set [1] is 8.17.
Taken in the same sequence, the figures for `CN1CCCC(c2ccc(-c3nc4cccc5c4n3CCNC5=O)cc2)C1` (centres unmarked) [Example 144, 1-[4-(Methyl-piperidin-3-yl)-phenyl]-8,9-dihydro-7H-2,7,9a-triaza-benzo[cd]azulen-6-one] were 240 to 242 °C and 8.13.
Regarding `O=C1NCCn2c(NCc3ccccc3)nc3cccc1c32` [Example 145, 1-Benzylamino-8,9-dihydro-7H-2,7,9a-triaza-benzo[cd]azulen-6-one], the melting point is 186 °C (dec.). Further, the pKi in data set [1] is 7.70.
Taken in the same sequence, the figures for `O=C1NCCn2c(-c3ccc(-c4c[nH]cn4)cc3)nc3cccc1c32` [Example 147, 1-[4-(1H-Imidazol-4-yl)-phenyl]-8,9-dihydro-7H-2,7,9a-triaza-benzo[cd]azulen-6-one] were > 198 °C (dec.) and 8.40.
Taken in the same sequence, the figures for `CC(C)N1CCCCC1c1ccc(-c2nc3cccc4c3n2CCNC4=O)cc1` (centres unmarked) [Example 151] were > 260 °C (dec.) and 8.16.
For `O=C1NCCn2c(-c3ccc(-c4ncc[nH]4)cc3)nc3cccc1c32` [Example 152, 1-[4-(1H-Imidazol-2-yl)-phenyl]-8,9-dihydro-7H-2,7,9a-triaza-benzo[cd]azulen-6-one] the same measures were above 325 °C and 8.49.
In turn, `NC(=S)c1c(-c2ccc(F)cc2)n2c3c(cccc13)C(=O)NCC2` [Example 153, 6-(4-Fluoro-phenyl)-1-oxo-1,2,3,4-tetrahydro-[1,4]diazepino[6,7,1-hi]indole-7-carbothioic Acid Amide] came in with a melting point of 238 to 240 °C. Also, the negative logarithm of the Ki (pKi) in data set [1] is 6.66.
Regarding `N/C(=N\O)c1c(-c2ccc(F)cc2)n2c3c(cccc13)C(=O)NCC2` [Example 155, 6-(4-Fluoro-phenyl)-N-hydroxy-1-oxo-1,2,3,4-tetrahydro-[1,4]diazepino[6,7,1-hi]indole-7-carboxmidine], the melting point lay in the range of 257 to 259 °C. In data set [1], the pKi was 7.06.
For `CC(O)c1c(-c2ccc(F)cc2)n2c3c(cccc13)C(=O)NCC2` (centres unmarked) [Example 157, 6-(4-Fluoro-phenyl)-7-(1-hydroxy-ethyl)-3,4-dihydro-2H-[1,4]diazepino[6,7,1-hi]indol-1-one] the same measures were 220 to 222 °C and 6.27.
Consider `O=C1NCCn2c(-c3ccc(F)cc3)c(-c3ccn[nH]3)c3cccc1c32` [Example 160, 6-(4-Fluoro-phenyl)-7-(2H-pyrazol-3-yl)-3,4-dihydro-2H-[1,4]diazepino[6,7,1-hi]indol-1-one], for which the melting point was 173 to 175 °C. Moreover, the Ki – broadly, a measure of affinity in units of concentration, obtained from inhibition or displacement – in data set [1] came to 249 nM.
For the molecule `COC(=O)CCCc1cc2cccc3c2n1CCNC3=O` [Example 161], the melting point was 175 to 176 °C. Further, the negative logarithm of the Ki (pKi) in data set [1] is 6.94.
Taken in the same sequence, the figures for `CC(O)c1cn2c3c(cccc13)C(=O)NCC2` (centres unmarked) [Example 163, 7-(1-Hydroxy-ethyl)-3,4-dihydro-2H-[1,4]diazepino[6,7,1-hi]indol-1-one] were 295 to 297 °C and 6.16.
Taken in the same sequence, the figures for `CC(=O)c1cn2c3c(cccc13)C(=O)NCC2` [Example 164, 7-Acetyl-3,4-dihydro-2H-[1,4]diazepino[6,7,1-hi]indol-1-one] were 285 to 287 °C and 6.22.
`O=C1NCCn2cc(C(O)c3ccccc3)c3cccc1c32` (centres unmarked) [Example 166, 7-(1-Hydroxy-1-phenyl-methyl)-3,4-dihydro-2H-[1,4]diazepino[6,7,1-hi]indol-1-one] gave a melting point of 178 to 180 °C. In data set [1], this molecule had a Ki of 380 nM.
